Format in all cases: in vivo
For series [1], the system named is C57BL/6J mice. Put plainly: DOI-induced head twitch response (HTR). As to conditions: 10 mg kg−1, 30-min test period. On the procedure:
Male C57BL/6J mice were habituated to the testing chambers for 30 min and 24 h after receiving acute doses of (S)‐ketamine (10 mg kg^−1, i.p.) or JX3212 (10 mg kg^−1, i.p.). Thirty minutes later, the mice received DOI at a dose of 5 mg kg^−1 (i.p.), and the head‐twitch response was scored over 30 min.

Series [2] deals with C57BL/6J mice after CSDS. Description: Chronic social defeat stress (CSDS) model, sucrose preference test. On the procedure: (§1) The 10‐day CSDS paradigm was conducted as previously described.^[ [24] ^] CD‐1 aggressive mice were singly housed in defeat cages on one side of a perforated plexiglass partition 24 h before the defeat session. Experimental C57BL/6J mice were placed daily on the resident cage side of a novel CD‐1 aggressor that rapidly initiated a physical attack on the intruder. After 10‐min of social defeat, the intruder mice were housed on the opposite side of the partition within a shared home cage, experiencing further sensory contact for the subsequent 24 h. In contrast, control mice were maintained in their home cages and allowed to explore the empty defeat cages for 10 min each day.
Mice were individually housed with two identical bottles containing either 1% sucrose solution or tap water for 24 h. The bottles were then replaced to eliminate potential positional bias, followed by an additional 24‐h period with the same solutions. Subsequently, the mice were provided with tap water for 24 h. During the experimental phase, new bottles filled with either 1% sucrose solution or tap water were presented for 24 h, and the bottles were changed every 12 h. The bottles were weighed both before and after the 24‐h test to assess consumption of each solution.

The subject of series [3] is C57BL/6J mice. Put plainly: Novelty-suppressed feeding test (NSFT). As to conditions: single dose 10 mg kg−1 i.p., 1 h after administration. On the procedure: The mice were individually housed in new cages and deprived of food for 24 h. The testing equipment was a brightly lit plastic box measuring 40 × 40 × 30 cm^3 with a light intensity of 1100–1200 lux. Each mouse was positioned in a corner of the device with one food pellet located at the center. The latency to start chewing food was recorded within 5 min. Immediately thereafter, the mice were placed back in their home cage with pre‐measured food, and the amount consumed in the next 5 min was used as a baseline to account for appetite changes that might affect the outcome.

Series [4] has as its system C57BL/6J mice after CSDS. Put plainly: CSDS model, forced swim test. On the procedure: as §1
Mice were placed individually in a transparent glass cylinder (25 cm high, 10 cm wide) filled with water (temperature 23–25 °C) to a depth of 10 cm, and prevented from making contact with the bottom. Mice behaviors were videotaped from each side. The observation period lasted for 6 min, with the final 4 min used to measure immobile behavior, which was processed using the AnyMaze Tracking System (Stoelting).

For series [5], the system named is C57BL/6J mice after CSDS. Description: CSDS model, social interaction test. As to conditions: single i.p. injection 10 mg kg−1. On the procedure:
as §1
C57BL/6J mice, comprising both control and experimental groups, were placed individually into the social open field with a plexiglass enclosure positioned along the side wall. Movement parameters, including the time spent in the interaction zone, corner zones, and locomotion, were monitored and analyzed over the two test sessions using the AnyMaze Tracking System. In the first session, the mice freely explored the arena for 2.5 min. Then, a new aggressive CD‐1 mouse was introduced into the plexiglass enclosure, and the experimental mice returned to the arena for the second 2.5‐min session. The social interaction ratio was determined as the ratio between the time the experimental mice spent in the interaction zone when the target CD‐1 was present and the time spent in the zone when it was absent.

Where [6] appears, read: single i.p. injection 10 mg kg−1.

“And” between values parts separate entries of the source, which are not always exact repeats. Equal entries are not always repeated.

Take `CN[C@]1(c2ccccc2Cl)CCCCC1=O` [(S)‐ketamine]: the “number of DOI-induced head twitches vs vehicle (in words)” value with C57BL/6J mice [1] was “significantly more”. In addition, the “SPT sucrose preference after CSDS, single mice” value with C57BL/6J mice after CSDS [2] (10 mg/kg (Fig 3H)) is 0.9625 and 0.9959 and 0.9967 and 0.7227 and 0.9713 and 0.6431 and 0.7826 and 0.9953. In addition, the “CSDS: sucrose preference in SPT (in words)” value with C57BL/6J mice after CSDS [2] (setting [6]) was “increased sucrose preference”. For the same compound, the “NSFT latency to feed (in words)” value with C57BL/6J mice [3] is reported as “significantly reduced the latency to feed”. In addition, in the series on C57BL/6J mice after CSDS [4] (10 mg/kg (Fig 3I)), the “FST immobility time after CSDS, single mice” value was 77.33 and 102.37 and 98.48 and 95.78 and 108.86 and 103.57 and 122.58. In addition, the “CSDS: immobility in FST (in words)” value in the series on C57BL/6J mice after CSDS [4] (setting [6]) is reported as “no significant impact”. Also, the “CSDS: time spent in corners in SIT (in words)” value with C57BL/6J mice after CSDS [5] was “shorter duration spent in the corners”.

The record behind these values is paper PMC12903969, “Discovery of a Novel and Potent Kir4.1 Inhibitor as a Safe and Rapid‐Onset Antidepressant Agent in Mice” (Advanced Science, 2025).
